Laboratory results taken from patent US7750017B2, “Heterocycles” (Bayer Schering Pharma Aktiengesellschaft, priority 2004, dated 2010).
pIC50: −log10 of the molar value.

What was measured:
[1] = tested on: A431 cells [human epidermoid carcinoma, overexpressing HER1 (EGFR, ErbB1)]; experiment: In vitro tumor cell proliferation assay (Cell Titer-Glo luminescent cell viability), A431 cells; type: cell-based; settings: A-431, 72 h, 72 hours of drug exposure, Cell Titer-Glo readout, read-out: IC50, anti-proliferative activity in A431 cells
[2] = tested on: BT474 [human breast carcinoma, overexpressing HER2 (ErbB2)]; experiment: In vitro tumor cell proliferation assay (Cell Titer-Glo luminescent cell viability), BT474 cells; type: cell-based; settings: BT-474, 72 h, 72 hours of drug exposure, Cell Titer-Glo readout, read-out: IC50, anti-proliferative activity in BT474 cells

SMILES | pIC50 [1] | pIC50 [2]
O=C(Cc1ccc2c(c1)sc1ncnc(Nc3ccc(OCc4cscn4)c(Cl)c3)c12)NCCN1CCOCC1 [Example 140, 2-(4-{[3-chloro-4-(1,3-thiazol-4-ylmethoxy)phenyl]amino}[1]benzothieno[2,3-d]pyrimidin-7-yl)-N-(2-morpholin-4-ylethyl) acetamide] | ≥ 4.30 | ≥ 5.30
CN(C)[C@H]1CCN(C(=O)Cc2ccc3c(c2)sc2ncnc(Nc4ccc(OCc5cscn5)c(Cl)c4)c23)C1 [Example 143, N-[3-chloro-4-(1,3-thiazol-4-ylmethoxy)phenyl]-7-{2-[(3S)-3-(dimethylamino)pyrrolidin-1-yl]-2-oxoethyl}[1]benzothieno[2,3-d] pyrimidin-4-amine] | ≥ 5.30 | ≥ 6.30
O=C(Cc1ccc2c(c1)sc1ncnc(Nc3ccc(OCc4cscn4)c(Cl)c3)c12)NN1CCOCC1 [Example 144, 2-(4-{[3-chloro-4-(1,3-thiazol-4-ylmethoxy)phenyl]amino}[1]benzothieno[2,3-d]pyrimidin-7-yl)-N-morpholin-4-ylacetamide] | ≥ 4.30 | ≥ 5.30
O=C(Cc1ccc2c(c1)sc1ncnc(Nc3ccc(OCc4cscn4)c(Cl)c3)c12)NCCOCCO [Example 145, 2-(4-{[3-chloro-4-(1,3-thiazol-4-ylmethoxy)phenyl]amino}[1]benzothieno[2,3-d]pyrimidin-7-yl)-N-[2-(2-hydroxyethoxy)ethyl] acetamide] | ≥ 4.30 | ≥ 5.30
CCN1CCN(CCNC(=O)Cc2ccc3c(c2)sc2ncnc(Nc4ccc(OCc5cscn5)c(Cl)c4)c23)CC1 [Example 146, 2-(4-{[3-chloro-4-(1,3-thiazol-4-ylmethoxy)phenyl]amino}[1]benzothieno[2,3-d]pyrimidin-7-yl)-N-[2-(4-ethylpiperazin-1-yl)ethyl] acetamide] | ≥ 4.30 | ≥ 6.30

The remaining lines, values ahead:

pIC50 [1] | pIC50 [2] | SMILES
≥ 4.30 | ≥ 5.30 | O=C(Cc1ccc2c(c1)sc1ncnc(Nc3ccc(OCc4cscn4)c(Cl)c3)c12)NCCO [Example 141, 2-(4-{[3-chloro-4-(1,3-thiazol-4-ylmethoxy)phenyl]amino}[1]benzothieno[2,3-d]pyrimidin-7-yl)-N-(2-hydroxyethyl)acetamide]
≥ 4.30 | ≥ 6.30 | CN(C)CCNC(=O)Cc1ccc2c(c1)sc1ncnc(Nc3ccc(OCc4cscn4)c(Cl)c3)c12 [Example 142, 2-(4-{[3-chloro-4-(1,3-thiazol-4-ylmethoxy)phenyl]amino}[1]benzothieno[2,3-d]pyrimidin-7-yl)-N-[2-(dimethylamino)ethyl] acetamide]
